Results as given in patent publication US20230143545A1, “Treating Pulmonary Inflammatory Disease Associated With Covid-19 By Administering Resiniferatoxin” (Sorrento Therapeutics, Inc., priority 2020, published 2023).
“Also recorded” adds a separate entry of the source.

Tests used:
Bleo-exposed rats [1] = test: Arterial blood gas analysis in rat model of bleomycin lung injury; details: intra-stellate RTX at day 3 after Bleo; day 7; vs. Bleo+Veh
Protocol: (§1) Rat Model of Lung Injury. Rats were randomized into three groups and evaluated at 1-week post-instillation as follows: sham rats, bleomycin (Bleo)-exposed rats with saline (epidural or intra-stellate injection), and Bleo-exposed rats with RTX (epidural or intra-stellate injection). Bleo (2.5 mg/kg, —0.15 mL) was instilled intra-tracheally to the lungs under 3% isoflurane anesthesia. Sham control rats underwent intra-tracheal instillation of saline. Animals were treated with RTX or vehicle (Veh; phosphate buffered saline) by either the epidural T1-T4 DRGs route (6 μg/ml, 10 μl/per ganglia) or intra-stellate ganglia administration (50μg/ml, 5 μl/per side) 3 days following Bleo delivery (FIG. 1A-B).
Intra-stellate Injection of RTX Rats were anesthetized using 2%-3% isoflurane:oxygen mixture. […] The skin from the rostral end of the sternum to the level of third rib was incised. Portions of the superficial and deep pectoral muscles and the first intercostal muscles were cut and dissected. To localize the left or right stellate ganglion, the left or right precava vein were separated with a hooked glass or steel rod laterally away from the brachiocephalic artery to expose the internal thoracic artery and the costocervical artery, which are descending branches of the right subclavian artery. Stellate ganglia and ansa subclavia are located medially to the origins of the internal thoracic and costocervical arteries. Then, RTX (5 μl, 50 mg/ml) was injected into the ganglia with a 5-μl Hamilton syringe (Microliter #95, Hamilton, Reno, Nev., USA.) over 30 s bilaterally. An image of this procedure is shown in FIG. 2A-B. Following these maneuvers, the thorax between the first and second intercostal spaces was closed with continuous 4-0 Dexon II coated braided absorbable polyglycolic acid suture and the skin was closed with 3-0 polypropylene suture and the chest evacuated. […]
(§2) Statistics. Statistical evaluation was analyzed using GraphPad Prism (GraphPad Software, San Diego, Calif. Version 8). Differences between treatments were determined using a Mixedeffects model for repeated-measures ANOVA. […]

Bleo-exposed rats [2] = test: Plasma cytokine ELISA in rat model of bleomycin lung injury; assay type: in vivo; details: epidural RTX at day 3 after Bleo; day 7
Protocol: Rat Model of Lung Injury.
Epidural Application of RTX.
Cytokine Assays. […] Organ weights were evaluated post-mortem.

Bleo-exposed rats [3] = test: Body weight and organ weights post-mortem in rat model of bleomycin lung injury
Protocol: as §1
Intra-stellate Injection of RTX Rats were anesthetized using 2%-3% isoflurane:oxygen mixture. […] The skin from the rostral end of the sternum to the level of third rib was incised. Portions of the superficial and deep pectoral muscles and the first intercostal muscles were cut and dissected. To localize the left or right stellate ganglion, the left or right precava vein were separated with a hooked glass or steel rod laterally away from the brachiocephalic artery to expose the internal thoracic artery and the costocervical artery, which are descending branches of the right subclavian artery. Stellate ganglia and ansa subclavia are located medially to the origins of the internal thoracic and costocervical arteries. Then, RTX (5 μl, 50 mg/ml) was injected into the ganglia with a 5-μl Hamilton syringe (Microliter #95, Hamilton, Reno, Nev., USA.) over 30 s bilaterally. […]
as §2

Bleo-exposed rats [4] = test: Lung plasma extravasation (Evans Blue) in rat model of bleomycin lung injury; details: day 7
Protocol: as §1
Epidural Application of RTX. The upper thoracic spinal afferents were ablated by epidural application of RTX. […] Briefly, rats were anesthetized using 2%-3% isoflurane:oxygen mixture. Rats were placed in the prone position and a small midline incision was made in the region of the T13-L1 thoracic vertebrae. Following dissection of the superficial muscles, two small holes (approximately 2 mm×2 mm) were made in the left and right sides of T13 vertebrae. A polyethylene catheter (PE-10) was inserted into the subarachnoid space via one hole and gently advanced about 4 cm approximating the T1 level. The upper thoracic sympathetic afferent ganglia were ablated by injecting resiniferatoxin (RTX; Sigma Aldrich), an ultra-potent agonist of the TRPV1 receptor into the subarachnoid space via the catheter. RTX (1 mg; Sigma Aldrich) was dissolved in a 1:1:8 mixture of ethanol, Tween 80 (Sigma-Aldrich), and isotonic saline. The first injection of RTX (6 μg/ml, 10 ul) was made at a very slow speed (˜1 minute) to minimize the diffusion of the drug. The catheter was then pulled back to T2, T3 and T4, respectively to perform serial injections (10 μl/each) at each segment. The catheter was withdrawn and the same injections were repeated on the other side. Silicone gel was used to seal the hole in the T13 vertebra. […]
Lung Plasma Extravasation, Tissue Extraction, and Quantification of Evans Blue. […]

Bleo-exposed rats [5] = test: Lung tissue cytokine ELISA in rat model of bleomycin lung injury; details: day 7
Protocol: as §1
Epidural Application of RTX. The upper thoracic spinal afferents were ablated by epidural application of RTX. […] Briefly, rats were anesthetized using 2%-3% isoflurane:oxygen mixture. Rats were placed in the prone position and a small midline incision was made in the region of the T13-L1 thoracic vertebrae. Following dissection of the superficial muscles, two small holes (approximately 2 mm×2 mm) were made in the left and right sides of T13 vertebrae. A polyethylene catheter (PE-10) was inserted into the subarachnoid space via one hole and gently advanced about 4 cm approximating the T1 level. The upper thoracic sympathetic afferent ganglia were ablated by injecting resiniferatoxin (RTX; Sigma Aldrich), an ultra-potent agonist of the TRPV1 receptor into the subarachnoid space via the catheter. RTX (1 mg; Sigma Aldrich) was dissolved in a 1:1:8 mixture of ethanol, Tween 80 (Sigma-Aldrich), and isotonic saline. The first injection of RTX (6 μg/ml, 10 ul) was made at a very slow speed (˜1 minute) to minimize the diffusion of the drug. The catheter was then pulled back to T2, T3 and T4, respectively to perform serial injections (10 μl/each) at each segment. The catheter was withdrawn and the same injections were repeated on the other side. Silicone gel was used to seal the hole in the T13 vertebra. The skin overlying the muscle were closed with a 3-0 polypropylene simple interrupted suture, and betadine was applied to the wound. For post-procedure pain management, buprenorphine (0.05 mg/kg) was subcutaneously injected immediately after surgery and twice daily for 2 days.
Intra-stellate Injection of RTX Rats were anesthetized using 2%-3% isoflurane:oxygen mixture. […] The skin from the rostral end of the sternum to the level of third rib was incised. Portions of the superficial and deep pectoral muscles and the first intercostal muscles were cut and dissected. To localize the left or right stellate ganglion, the left or right precava vein were separated with a hooked glass or steel rod laterally away from the brachiocephalic artery to expose the internal thoracic artery and the costocervical artery, which are descending branches of the right subclavian artery. Stellate ganglia and ansa subclavia are located medially to the origins of the internal thoracic and costocervical arteries. Then, RTX (5 μl, 50 mg/ml) was injected into the ganglia with a 5-μl Hamilton syringe (Microliter #95, Hamilton, Reno, Nev., USA.) over 30 s bilaterally. […] Betadine was applied to the wound and the rats were allowed to recover from the anesthesia. […]
Cytokine Assays. Lung and plasma cytokines were measured with R&D cytokine ELISA assays (Minneapolis, Minn., USA) according to the manufacturer's instructions.

[6] = intra-stellate RTX at day 3 after Bleo, day 7, vs. Bleo+Veh
[7] = epidural RTX at day 3 after Bleo, vs. Bleo
[8] = stellate RTX at day 3 after Bleo, vs. Bleo+Veh

## C=C(C)[C@]12C[C@@H](C)[C@@]34O[C@](Cc5ccccc5)(O[C@@H]1[C@@H]3C=C(COC(=O)Cc1ccc(O)c(OC)c1)C[C@]1(O)C(=O)C(C)=C[C@@H]41)O2 [RTX, resiniferatoxin]
Bleo-exposed rats [1]
  Arterial pCO2 (elevated by Bleo): reversed these changes
  Arterial pO2 (reduced by Bleo): reversed these changes
  Arterial sO2 (reduced by Bleo): reversed these changes
Bleo-exposed rats [2]
  Plasma cytokine levels in response to Bleo: reduced
Bleo-exposed rats [3]; [6]
  Ratio of WLW to BW: significantly reduced
  Wet lung weight (WLW): significantly reduced
Bleo-exposed rats [3]; stellate ganglia administration of RTX in rats with lung injury
  Body weight: improved
Bleo-exposed rats [4]; epidural RTX T1-T4 (6 μg/ml, 10 μl/per ganglia) at day 3 after Bleo 2.5 mg/kg intra-tracheal, vs. Bleo
  Plasma extravasation (Evans Blue areas / concentration in lung): reduced
Bleo-exposed rats [4]; intra-stellate RTX (50μg/ml, 5 μl/per side) at day 3 after Bleo, vs. Bleo+Veh
  Plasma extravasation (Evans Blue dye in the lung): marked reduction; also recorded: reduced
Bleo-exposed rats [5]; [7]
  Lung tissue IFNγ level: reduced
  Lung tissue IL-1β level: reduced
  Lung tissue IL-6 level: reduced
Bleo-exposed rats [5]; [8]
  Lung tissue IL-1β level: significantly reduced
  Lung tissue IL-6 level: significantly reduced
